Experimental data as given in EP0470794A1, “Process for the preparation of nitriles” (ZENECA LIMITED, priority 1990, dated 1992).

Experiments:
[1] = tested on: AII-induced contractions of isolated rabbit aorta; assay: Test B: antagonism of AII-induced contractions of isolated aorta; type: cell-based; details: Oryctolagus cuniculus, 37°C, average, read-out: average pA₂ (converted)
Experimental: In general, compounds of formula VI as defined above show significant inhibition in Test A at a concentration of 50 micromolar or much less. Test B: This in vitro test involves the measurement of the antagonistic effects of the test compound against AII-induced contractions of isolated rabbit aorta, maintained in a physiological salt solution at 37°C. In order to ensure that the effect of the compound is specific to antagonism of AII, the effect of the test compound on noradrenaline-induced contractions may also be determined in the same preparation.

[2] = tested on: angiotensin II-induced pressor responses; assay: Test C: antagonism of angiotensin II-induced pressor responses in vivo; details: Rattus norvegicus, iv; i.v. administration; rats; read-out: ED₅₀
Experimental: In general, compounds of formula VI as defined above show significant inhibition in Test B at a final concentration of 50 micromolar or much less. Test C: This in vivo test involves using terminally-anaesthetised or conscious rats in which an arterial catheter has been implanted under anaesthesia for the measurement of changes in blood pressure. The AII antagonistic effects of the test compound following oral or parenteral administration, are assessed against angiotensin II-induced pressor responses. To ensure that the effect is specific, the effect of the test compound on vasopressin-induced pressor responses may also be determined in the same preparation.

SMILES: Cc1cc(OCc2ccc(-c3ccccc3-c3nnn[nH]3)cc2)c2ccccc2n1.Cl [2-methyl-4-[(2′-(1H-tetrazol-5-yl)biphenyl-4-yl)methoxy]quinoline hydrochloride]
- Kb [1]: 1.12 nM
- ED50 [2]: 0.5 mg/kg
